Assay in all cases: radiometric protein kinase assay
In assay [1] the test system is CK1δ/ε. It counts as biochemical, porcine. The settings on record: for IC50: 15 μmol/L ATP, read-out: IC50 CK1.
Assay [2] addresses CLK4 (Mus musculus, UniProt O35493).
Protocol: (§1) Buffers. Buffer A: 10 mM MgCl2, 1 mM EGTA, 1 mM DTT, 25 mM Tris-HCl pH 7.5, 50 μg heparin/mL. Buffer C: 60 mM β-glycerophosphate, 15 mM p-nitrophenylphosphate, 25 mM MOPS (pH 7.2), 15 mM EGTA, 15 mM MgCl2, 1 mM DTT, 1 mM sodium vanadate, 1 mM phenylphosphate.
(§2) Kinase activities were assayed in buffer A or C at 30°C at a final ATP concentration of 15 μmol/L. Blank values were subtracted and activities were expressed in percent of the maximal activity, i.e. in the absence of inhibitors. Controls were performed with appropriate dilutions of DMSO.
(§3) Their kinase activity was assayed in buffer A, with 1 mg histone H1/mL, in the presence of 15 μmol/L [γ-33P] ATP (3,000 Ci/mmol; 10 mCi/mL) in a final volume of 30 μL. After 30 min incubation at 30°C, the reaction was stopped by harvesting onto P81 phosphocellulose supernatant (Whatman) using a FilterMate harvester (Packard) and washing in 1% phosphoric acid. Scintillation fluid was added and the radioactivity measured in a Packard counter.
(§4) All data points for construction of dose response curves were recorded in triplicate.
The target in assay [3] is T1, CDK2/cyclin A (Homo sapiens, UniProt P24941).
T1 construct: made in house
It counts as biochemical. The settings on record: for IC50: 15 μmol/L ATP, read-out: IC50 CDK2/cyclinA.

In assay [4] the target is DYRK1A (Homo sapiens, UniProt Q13627). In kind it is biochemical. The settings on record: for IC50: 15 μmol/L ATP, read-out: IC50 DYRK 1A.
For assay [5], the target named is T2, DYRK3 (Homo sapiens, UniProt O43781).
T2 sequence (O43781 1-588): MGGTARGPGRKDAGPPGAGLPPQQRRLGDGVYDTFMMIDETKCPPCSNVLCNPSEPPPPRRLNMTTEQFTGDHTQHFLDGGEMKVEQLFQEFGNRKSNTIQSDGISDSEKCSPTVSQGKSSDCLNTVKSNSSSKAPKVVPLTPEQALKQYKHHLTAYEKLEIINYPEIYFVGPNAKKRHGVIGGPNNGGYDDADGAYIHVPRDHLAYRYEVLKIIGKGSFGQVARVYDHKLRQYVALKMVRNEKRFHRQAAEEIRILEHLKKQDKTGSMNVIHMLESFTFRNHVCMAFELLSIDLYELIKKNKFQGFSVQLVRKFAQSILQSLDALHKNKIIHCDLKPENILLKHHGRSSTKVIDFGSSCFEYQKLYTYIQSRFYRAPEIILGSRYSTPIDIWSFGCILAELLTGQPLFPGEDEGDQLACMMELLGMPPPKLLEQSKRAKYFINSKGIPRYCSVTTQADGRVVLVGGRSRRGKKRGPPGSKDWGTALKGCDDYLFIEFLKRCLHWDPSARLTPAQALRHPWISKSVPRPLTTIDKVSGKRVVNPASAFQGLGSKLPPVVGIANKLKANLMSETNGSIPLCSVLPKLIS
It counts as biochemical. The settings on record: for IC50: 15 μmol/L ATP, read-out: IC50 DYRK 3.

Assay [6] has as its target DYRK1B (Homo sapiens, UniProt Q9Y463). In kind it is biochemical. The settings on record: for IC50: 15 μmol/L ATP, read-out: IC50 DYRK 1B.
Assay [7] deals with CLK1 (Mus musculus, UniProt P22518).
Assay [8] concerns the target CLK3 (Mus musculus, UniProt O35492).
Protocol: as §1, §2, §3, §4
Assay [9] deals with CLK2 (Mus musculus, UniProt O35491).
Assay [10] has as its target T3, DYRK2 (Homo sapiens, UniProt Q92630).
T3 sequence (Q92630 1-601): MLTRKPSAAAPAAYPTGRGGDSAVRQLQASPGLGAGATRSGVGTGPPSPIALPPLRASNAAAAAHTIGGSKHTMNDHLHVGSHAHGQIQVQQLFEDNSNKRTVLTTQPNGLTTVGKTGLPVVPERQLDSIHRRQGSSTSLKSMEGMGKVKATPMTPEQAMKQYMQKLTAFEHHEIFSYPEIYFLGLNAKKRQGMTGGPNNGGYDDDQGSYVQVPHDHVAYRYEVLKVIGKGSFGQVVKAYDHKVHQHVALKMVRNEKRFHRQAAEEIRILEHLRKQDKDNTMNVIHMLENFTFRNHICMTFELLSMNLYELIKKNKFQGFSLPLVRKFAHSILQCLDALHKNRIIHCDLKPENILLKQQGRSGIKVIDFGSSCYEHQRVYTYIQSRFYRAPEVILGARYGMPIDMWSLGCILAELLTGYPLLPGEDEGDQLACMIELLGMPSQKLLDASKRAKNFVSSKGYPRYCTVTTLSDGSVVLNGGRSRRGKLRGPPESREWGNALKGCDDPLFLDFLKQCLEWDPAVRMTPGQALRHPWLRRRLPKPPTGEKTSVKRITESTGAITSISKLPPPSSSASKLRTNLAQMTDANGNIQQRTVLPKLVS
In kind it is biochemical. The settings on record: for IC50: 15 μmol/L ATP, read-out: IC50 DYRK 2.

The test system of assay [11] is GSK-3. In kind it is biochemical, porcine. The settings on record: for IC50: 15 μmol/L ATP, read-out: IC50 GSK3.
Assay [12] has as its system CDK1/cyclin B. It counts as biochemical, starfish. The settings on record: for IC50: 15 μmol/L ATP.
For assay [13], the target named is CDK9/cyclin T (Homo sapiens, UniProt P50750).
Protocol: as §1, §2, §3, §4
Assay [14] deals with T4, CDK5/p25 (Homo sapiens, UniProt Q00535).
T4 construct: made in house
In kind it is biochemical. The settings on record: for IC50: 15 μmol/L ATP.

The structures appear in SMILES notation. Bounds are passed on as bounds.

Sequence of CLK4 (O35493 whole entry): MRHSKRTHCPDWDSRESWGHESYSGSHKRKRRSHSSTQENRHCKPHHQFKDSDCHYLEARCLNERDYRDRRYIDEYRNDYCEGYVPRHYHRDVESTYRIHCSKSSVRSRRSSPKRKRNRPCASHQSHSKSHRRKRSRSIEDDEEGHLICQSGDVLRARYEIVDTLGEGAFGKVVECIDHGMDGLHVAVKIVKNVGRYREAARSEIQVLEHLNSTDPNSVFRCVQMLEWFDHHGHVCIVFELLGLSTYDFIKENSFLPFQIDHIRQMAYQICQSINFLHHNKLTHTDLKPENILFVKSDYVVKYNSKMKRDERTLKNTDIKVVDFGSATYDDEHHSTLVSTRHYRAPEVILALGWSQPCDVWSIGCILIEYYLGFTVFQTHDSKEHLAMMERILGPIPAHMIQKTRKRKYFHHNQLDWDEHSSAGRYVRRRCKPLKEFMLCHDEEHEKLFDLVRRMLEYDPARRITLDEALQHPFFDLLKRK
Sequence of CLK2 (O35491 whole entry): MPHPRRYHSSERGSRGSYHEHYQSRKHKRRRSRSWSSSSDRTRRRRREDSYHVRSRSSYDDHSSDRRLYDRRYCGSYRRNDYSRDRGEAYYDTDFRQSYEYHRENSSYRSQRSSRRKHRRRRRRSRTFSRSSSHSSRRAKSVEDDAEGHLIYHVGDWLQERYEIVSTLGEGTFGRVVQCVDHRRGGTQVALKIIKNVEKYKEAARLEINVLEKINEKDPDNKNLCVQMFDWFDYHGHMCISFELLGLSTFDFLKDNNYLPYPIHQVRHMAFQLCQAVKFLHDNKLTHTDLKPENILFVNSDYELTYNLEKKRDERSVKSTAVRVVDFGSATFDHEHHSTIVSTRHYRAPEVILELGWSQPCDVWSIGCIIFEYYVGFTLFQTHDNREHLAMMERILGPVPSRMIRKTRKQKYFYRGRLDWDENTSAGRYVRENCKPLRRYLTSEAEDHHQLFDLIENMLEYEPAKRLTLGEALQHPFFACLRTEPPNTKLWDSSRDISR
Sequence of CLK1 (P22518 whole entry): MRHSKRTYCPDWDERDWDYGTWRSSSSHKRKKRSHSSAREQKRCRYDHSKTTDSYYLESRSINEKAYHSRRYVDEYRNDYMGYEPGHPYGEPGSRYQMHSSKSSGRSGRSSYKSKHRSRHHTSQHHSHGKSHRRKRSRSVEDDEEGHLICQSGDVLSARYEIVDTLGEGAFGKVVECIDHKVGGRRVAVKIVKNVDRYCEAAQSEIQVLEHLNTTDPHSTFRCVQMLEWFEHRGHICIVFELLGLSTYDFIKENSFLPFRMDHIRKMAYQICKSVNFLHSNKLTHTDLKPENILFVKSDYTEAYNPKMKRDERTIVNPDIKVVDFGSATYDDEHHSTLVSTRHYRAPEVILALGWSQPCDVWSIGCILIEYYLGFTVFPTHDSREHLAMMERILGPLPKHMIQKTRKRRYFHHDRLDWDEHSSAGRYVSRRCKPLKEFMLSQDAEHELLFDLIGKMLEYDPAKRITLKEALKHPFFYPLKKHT
Sequence of DYRK1B (Q9Y463 whole entry): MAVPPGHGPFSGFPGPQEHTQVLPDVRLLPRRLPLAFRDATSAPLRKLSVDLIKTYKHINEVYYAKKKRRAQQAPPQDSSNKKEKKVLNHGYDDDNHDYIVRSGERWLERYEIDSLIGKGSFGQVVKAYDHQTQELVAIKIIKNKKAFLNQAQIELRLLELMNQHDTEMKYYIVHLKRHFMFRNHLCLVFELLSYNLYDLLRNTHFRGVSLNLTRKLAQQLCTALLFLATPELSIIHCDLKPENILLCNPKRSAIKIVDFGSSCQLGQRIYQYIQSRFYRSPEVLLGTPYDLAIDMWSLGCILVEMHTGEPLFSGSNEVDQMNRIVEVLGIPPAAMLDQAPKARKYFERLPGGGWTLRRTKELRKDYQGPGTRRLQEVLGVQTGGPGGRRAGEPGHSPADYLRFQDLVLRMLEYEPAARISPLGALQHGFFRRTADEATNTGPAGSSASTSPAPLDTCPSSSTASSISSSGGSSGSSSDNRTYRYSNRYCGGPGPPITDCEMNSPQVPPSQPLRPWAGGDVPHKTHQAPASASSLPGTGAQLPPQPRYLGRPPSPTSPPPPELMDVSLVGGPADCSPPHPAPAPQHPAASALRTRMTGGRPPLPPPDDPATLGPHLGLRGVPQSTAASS
T4 sequence (Q00535 whole entry): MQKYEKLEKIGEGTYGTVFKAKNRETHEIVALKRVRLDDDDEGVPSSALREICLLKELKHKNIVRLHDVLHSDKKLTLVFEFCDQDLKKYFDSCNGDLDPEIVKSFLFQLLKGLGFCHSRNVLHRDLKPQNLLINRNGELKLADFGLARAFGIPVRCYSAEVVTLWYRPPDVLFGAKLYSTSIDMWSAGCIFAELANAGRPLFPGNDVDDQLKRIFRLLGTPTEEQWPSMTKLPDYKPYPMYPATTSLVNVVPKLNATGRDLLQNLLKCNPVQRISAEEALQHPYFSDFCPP
T4 sequence (Q15078 99-307 partner limits assumed): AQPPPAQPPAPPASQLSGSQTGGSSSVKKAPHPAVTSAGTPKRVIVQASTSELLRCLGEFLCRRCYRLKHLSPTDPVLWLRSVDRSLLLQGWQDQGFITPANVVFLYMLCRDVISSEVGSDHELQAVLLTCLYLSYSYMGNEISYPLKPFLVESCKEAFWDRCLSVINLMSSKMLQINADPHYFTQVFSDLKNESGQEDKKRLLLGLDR
Sequence of CDK9/cyclin T (P50750 whole entry): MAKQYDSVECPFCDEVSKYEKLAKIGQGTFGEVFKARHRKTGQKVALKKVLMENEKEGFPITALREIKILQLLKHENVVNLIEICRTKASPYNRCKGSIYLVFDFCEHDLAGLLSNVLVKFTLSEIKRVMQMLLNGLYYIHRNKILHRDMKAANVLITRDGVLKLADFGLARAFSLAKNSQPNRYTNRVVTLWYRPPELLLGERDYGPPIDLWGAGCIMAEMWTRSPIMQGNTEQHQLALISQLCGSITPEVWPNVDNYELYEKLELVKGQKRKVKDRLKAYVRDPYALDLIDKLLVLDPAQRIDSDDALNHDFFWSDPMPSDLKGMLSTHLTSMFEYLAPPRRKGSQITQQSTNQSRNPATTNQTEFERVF
Sequence of CDK9/cyclin T (O60563 whole entry partner): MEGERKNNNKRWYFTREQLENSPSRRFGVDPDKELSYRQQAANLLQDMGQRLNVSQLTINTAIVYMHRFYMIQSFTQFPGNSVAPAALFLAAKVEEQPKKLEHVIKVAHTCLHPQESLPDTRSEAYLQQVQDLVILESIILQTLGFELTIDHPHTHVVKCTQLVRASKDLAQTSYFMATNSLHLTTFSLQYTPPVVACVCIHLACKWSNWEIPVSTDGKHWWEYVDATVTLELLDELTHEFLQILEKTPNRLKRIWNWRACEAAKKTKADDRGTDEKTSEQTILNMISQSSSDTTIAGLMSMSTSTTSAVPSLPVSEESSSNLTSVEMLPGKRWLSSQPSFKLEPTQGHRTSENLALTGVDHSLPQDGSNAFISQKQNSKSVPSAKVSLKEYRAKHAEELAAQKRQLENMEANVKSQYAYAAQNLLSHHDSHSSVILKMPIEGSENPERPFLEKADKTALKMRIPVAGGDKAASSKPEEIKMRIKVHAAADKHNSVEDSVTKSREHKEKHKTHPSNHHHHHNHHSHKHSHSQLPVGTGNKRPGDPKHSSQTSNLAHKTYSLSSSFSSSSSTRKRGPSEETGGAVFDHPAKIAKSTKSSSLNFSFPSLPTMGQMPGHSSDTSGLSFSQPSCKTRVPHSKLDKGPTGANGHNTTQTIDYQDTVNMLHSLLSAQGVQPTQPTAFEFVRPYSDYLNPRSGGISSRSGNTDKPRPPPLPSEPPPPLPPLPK
Sequence of CLK3 (O35492 whole entry): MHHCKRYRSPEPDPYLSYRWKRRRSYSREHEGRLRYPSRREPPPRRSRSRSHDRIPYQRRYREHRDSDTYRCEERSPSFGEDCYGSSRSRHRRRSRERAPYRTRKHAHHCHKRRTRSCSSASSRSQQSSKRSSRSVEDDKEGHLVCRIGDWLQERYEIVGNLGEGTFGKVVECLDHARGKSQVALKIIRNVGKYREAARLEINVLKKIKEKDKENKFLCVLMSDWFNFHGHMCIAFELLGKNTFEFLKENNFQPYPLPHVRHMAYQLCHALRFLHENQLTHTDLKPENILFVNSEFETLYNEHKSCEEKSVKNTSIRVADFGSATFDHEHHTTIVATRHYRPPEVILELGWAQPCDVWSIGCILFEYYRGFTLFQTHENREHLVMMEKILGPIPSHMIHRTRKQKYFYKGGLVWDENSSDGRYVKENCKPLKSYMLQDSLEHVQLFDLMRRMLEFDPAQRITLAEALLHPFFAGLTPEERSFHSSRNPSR

Turning to `O=C1NCc2ccc3c(-c4ccccc4)c[nH]c3c21` [8a, 3-Phenyl-6,7-dihydropyrrolo[3,4-g]indol-8(1H)-one], in [1] (10 µM concentration, ± SEM), the “Residual enzyme activity CK1” value is listed as 91±4%. Also, the IC50 in assay [1] was more than 10000 nM; in assay [2] it was 120 nM; in assay [3], more than 10000 nM; in assay [4] it was more than 10000 nM; in [5], more than 10000 nM; in assay [6], 4800 nM. Further, the IC50 in assay [7] is 46 nM; in [8], more than 10000 nM; in [9] it was 210 nM; in assay [11], more than 10000 nM; in [12], more than 10000 nM; in [13], more than 10000 nM. In assay [14], this compound registered an IC50 of more than 10000 nM. The remaining activity at 10 µM in assay [2] (read-out: Residual enzyme activity CLK 4) was 2%; in assay [3] (10 µM concentration, ± SEM, read-out: Residual enzyme activity CDK2/cyclin A), 101 ± 6%; in assay [4] (10 µM concentration, ± SEM, read-out: Residual enzyme activity DYRK 1A), 61 ± 12%; in [5] (10 µM concentration, ± SEM, read-out: Residual enzyme activity DYRK 3), 102 ± 13%; in assay [6] (10 µM concentration, ± SEM, read-out: Residual enzyme activity DYRK 1B) it was 51 ± 9%; in assay [7] (read-out: Residual enzyme activity CLK 1), 8 ± 2%. The remaining activity at 10 µM in assay [8] (read-out: Residual enzyme activity CLK 3) came to 78 ± 9%; in assay [9] (read-out: Residual enzyme activity CLK 2), 14 ± 3%; in assay [10] (10 µM concentration, ± SEM, read-out: Residual enzyme activity DYRK 2) it was 69 ± 15%; in assay [13] (read-out: Residual enzyme activity CDK9/cyclin T), 85 ± 5%; in assay [14] (10 µM concentration, ± SEM, read-out: Residual enzyme activity CDK5/p25), 107 ± 20%. Besides, in [11] (10 µM concentration, ± SEM), the “Residual enzyme activity GSK3” value is 111±19%. For the same compound, the “Residual enzyme activity CDK1/cyclin B” value in assay [12] (10 µM concentration, ± SEM) is on record as 71±21%.

On to `O=C1NCc2ccc3c(-c4ccc(Cl)cc4)c[nH]c3c21` [8d, 3-(4-Chlorophenyl)-6,7-dihydropyrrolo[3,4-g]indol-8(1H)-one], for which the IC50 was more than 10000 nM in assay [1]; 130 nM in [2]; more than 10000 nM in assay [3]; more than 10000 nM in assay [4]; more than 10000 nM in assay [5]; more than 10000 nM in assay [6]. In addition, the IC50 in assay [7] is 100 nM; in assay [8], 1800 nM; in [9], 170 nM; in assay [10], 9300 nM; in assay [11], more than 10000 nM; in assay [12], more than 10000 nM. For the same compound, the IC50 in assay [13] and in assay [14] was more than 10000 nM throughout.

In the case of `O=C1NCc2ccc3c(-c4ccc(Cl)c(Cl)c4)c[nH]c3c21` [8e, 3-(3,4-Dichlorophenyl)-6,7-dihydropyrrolo[3,4-g]indol-8(1H)-one], the IC50 in assay [1] was more than 10000 nM; in assay [2], 130 nM; in assay [3] it was more than 10000 nM; in [4] it was more than 10000 nM; in [5] it was more than 10000 nM; in [6], more than 10000 nM. Moreover, the IC50 is 110 nM in [7]; more than 10000 nM in [8]; 690 nM in assay [9]; more than 10000 nM in assay [10]; more than 10000 nM in assay [11]; more than 10000 nM in assay [12]. Also, the IC50 in assay [13] and in [14] was more than 10000 nM each time.

Regarding `O=C1NCc2ccc3c(-c4cccc(O)c4)c[nH]c3c21` [8g, 3-(3-Hydroxyphenyl)-6,7-dihydropyrrolo[3,4-g]indol-8(1H)-one], the IC50 in assay [1] was more than 10000 nM; in assay [2], 81 nM; in [3], more than 10000 nM; in [4] it was 740 nM; in assay [5], 2200 nM; in assay [6] it was 390 nM. For the same compound, the IC50 is 44 nM in [7]; 1700 nM in assay [8]; 82 nM in assay [9]; 590 nM in assay [10]; more than 10000 nM in assay [11]; more than 10000 nM in assay [12]. The values for the IC50 in assay [13] and in assay [14] were 1100 nM and more than 10000 nM, respectively.

Consider `CC(=O)Oc1cccc(-c2c[nH]c3c4c(ccc23)CNC4=O)c1` [8h, 3-(8-Oxo-1,6,7,8-tetrahydropyrrolo[3,4-g]indol-3-yl)phenyl acetate], for which the IC50 is more than 10000 nM in assay [1]; 130 nM in assay [2]; more than 10000 nM in assay [3]; 1400 nM in assay [4]; 6100 nM in assay [5]; 1500 nM in assay [6]. Further, the IC50 was 170 nM in [7]; 3300 nM in [8]; 320 nM in assay [9]; 2400 nM in assay [10]; more than 10000 nM in assay [11]; more than 10000 nM in [12]. Also, the IC50 in [13] and in assay [14] was more than 10000 nM each time.

Take `Cc1[nH]c2c3c(ccc2c1-c1ccccc1)CNC3=O` [8k, 2-Methyl-3-phenyl-6,7-dihydropyrrolo[3,4-g]indol-8(1H)-one]: the IC50 is more than 10000 nM in [1]; more than 10000 nM in assay [3]; 1500 nM in assay [4]; 93 nM in assay [7]; more than 10000 nM in assay [11]; more than 10000 nM in [12]. Further, the IC50 in [13] and in [14] was more than 10000 nM throughout.

Consider `CCc1[nH]c2c3c(ccc2c1-c1ccccc1)CNC3=O` [8l, 2-Ethyl-3-phenyl-6,7-dihydropyrrolo[3,4-g]indol-8(1H)-one], for which the IC50 in [1] is 6100 nM; in assay [3], more than 10000 nM; in [4] it was 810 nM; in assay [7], 120 nM; in assay [11], more than 10000 nM; in assay [12], more than 10000 nM. Also, the IC50 in assay [13] and in assay [14] was more than 10000 nM in each case.

As to `O=C1NCc2c(Br)cc3c(-c4ccccc4)c[nH]c3c21` [12a, 5-Bromo-3-phenyl-6,7-dihydropyrrolo[3,4-g]indol-8(1H)-one], the IC50 was 1700 nM in assay [1]; more than 10000 nM in [3]; 200 nM in assay [4]; 43 nM in assay [7]; more than 10000 nM in [11]; 2800 nM in assay [12]. Further, the IC50 in assay [13] was more than 10000 nM; in [14], 5300 nM.

Consider `O=C1NCc2c(Cl)cc3c(-c4ccccc4)c[nH]c3c21` [12c, 5-Chloro-3-phenyl-6,7-dihydropyrrolo[3,4-g]indol-8(1H)-one], for which the IC50 in assay [1] is more than 10000 nM; in assay [2] it was 300 nM; in assay [3], more than 10000 nM; in assay [4] it was 320 nM; in [5] it was more than 10000 nM; in assay [6], 1800 nM. The IC50 in [7] was 380 nM; in assay [8] it was 2200 nM; in assay [9], 33 nM; in [10], 2300 nM; in assay [11] it was more than 10000 nM; in assay [13] it was more than 10000 nM. In addition, in assay [14], the IC50 was more than 10000 nM.

(Values after paper PMC5933782, “Molecular structures of cdc2-like kinases in complex with a new inhibitor chemotype” (PLoS ONE, 2018).)
